Legend:
[1] = target: recombinant human GST-SYK (Homo sapiens (Human), UniProt P43405); test: Homogeneous Time-Resolved Fluorescence (HTRF) assay for the recombinant human Syk enzyme; type: biochemical
Method: Homogeneous Time-Resolved Fluorescence (HTRF) Assay for the Recombinant Human Syk Enzyme
A recombinant GST-hSYK fusion protein was used to measure potency of compounds to inhibit human Syk activity. […] Final volume of the reaction was 10 μL. […] To quench the reaction and detect the phosphorylated product, 2 nM of a Europium-anti-phosphotyrosine antibody (Perkin Elmer #AD0161) and 70 nM SA-APC (Perkin-Elmer #CR130-100) were added together in 15 mM Tris pH 7.5, 40 mM EDTA, 0.01% tween 20. Final volume of the quenching solution was […]. The resulting HTRF signal was measured after 30 minutes on an EnVision (Perkin-Elmer) reader using a time-resolved fluorescence protocol.

PGD2 = settings: dosed intranasally, phase I/II study, allergic rhinitis; cited from earlier work
[2] = phase II clinical trial, allergic rhinitis; cited from earlier work

## COCc1cc(Nc2cc(C(F)(F)F)ccn2)nc(-c2cnc([C@]3(O)CC[C@@H](C(=O)OC)C(C)(C)C3)s2)c1 (single isomer, unassigned) [Example 4.8, methyl (1R,4S or 1S,4R)-4-hydroxy-4-{5-[4-(methoxymethyl)-6-{[4-(trifluoromethyl)pyridin-2-yl]amino}pyridin-2-yl]-1,3-thiazol-2-yl}-2,2-dimethylcyclohexanecarboxylate]
[1]
  IC50: 1170 nM

## Oc1cccc(Nc2ncc(F)c(Nc3cccc(O)c3)n2)c1 [Example R112]
PGD2
  change in PGD2: statistically significant decrease
  clinical safety: safe across a range of indicators
[2]
  efficacy versus placebo: lack of efficacy

Reference: patent publication US9598405B2, “Thiazole-substituted aminopyridines as spleen tyrosine kinase inhibitors” (Merck Sharp & Dohme Corp., priority 2012, dated 2017)
